# Assay results published in patent US8796249B2, “TGR5 modulators and methods of use thereof” (Intercept Pharmaceuticals, Inc., priority 2008, dated 2014).
# Several values for one entry are separate records, joined by “and”; a condition that tells them apart may be missing. Equal entries are not always repeated. Structures can show the parent of a compound that is named as a salt.
# Tests used:
# LXRα = biological target: T1, LXRα (Homo sapiens, UniProt Q13133); assay: LXR coactivator recruitment (alphascreen); type: biochemical; conditions: ref standard T0901317
# T1 sequence (Q13133 1-447): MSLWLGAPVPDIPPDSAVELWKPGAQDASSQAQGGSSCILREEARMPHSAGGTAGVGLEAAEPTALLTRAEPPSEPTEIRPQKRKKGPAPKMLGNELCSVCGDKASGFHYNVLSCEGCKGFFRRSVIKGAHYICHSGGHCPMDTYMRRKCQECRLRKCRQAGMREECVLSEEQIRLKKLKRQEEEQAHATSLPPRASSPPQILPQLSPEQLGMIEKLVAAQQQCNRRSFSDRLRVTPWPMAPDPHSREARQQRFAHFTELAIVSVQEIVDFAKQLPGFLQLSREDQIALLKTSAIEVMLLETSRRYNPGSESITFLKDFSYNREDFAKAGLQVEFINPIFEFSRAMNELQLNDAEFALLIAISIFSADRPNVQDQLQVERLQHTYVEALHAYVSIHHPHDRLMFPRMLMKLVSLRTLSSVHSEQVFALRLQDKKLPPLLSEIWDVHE
# Protocol: The selectivity of compounds of the invention was evaluated using assay methods known in the art. Specifically, the following assay methods were used: • FXR and LXR: Coactivator Recruitment (alphascreen); • TGR5: cAMP level on human intestinal cell line (NCI-H716); • PXR: Ligands Competition assay (Binding Assay) • CAR: Coactivator Recruitment (Lanthascreen)
# [1] = 1-Octanol/water partition coefficient (shake-flask); type: physicochemical; conditions: ionized species, pH 8
# Protocol: Since the sulphate and sulphonated analogues are always ionised at all pH values the octanol/water partition coefficient was measured for all molecules in ionized form. 1-Octanol/water partition coefficient (log P) was evaluated using a conventional shake-flask procedure. […] The aqueous buffer was previously pre-saturated with 1-octanol, 5 ml of 1-octanol pre-saturated with water was then added and the samples were left to equilibrate for 2 weeks under continuous stirring at room temperature After centrifugation the two phases were carefully separated. BA concentration in the water phase was measured with HPLC-ESI ? MS/MS using C18 column (150 mm×2 mm i.d., 4 μm) and, as mobile phases, water containing 15 mM acetic acid pH 5 and acetonitrile. The flow rate was 150 μal/min and the column was maintained at 45° C. The mass spectrometry acquisition was performed in the multiple reaction monitoring mode using the ESI source in negative ionization.
# HepG2 cell = HepG2 cell cytotoxicity, ATP decrease; type: cell-based; conditions: human
# Protocol: (§1) Compounds of the invention were evaluated for cytotoxicity using standard methods known in the art. Specifically, cytotoxicity was evaluated using HEPG2 cells and monitoring ATP decrease and determining the EC50 value. […]
# [2] = HepG2 cell cytotoxicity, ATP decrease; type: cell-based; conditions: human
# Protocol: as §1
# Intestinal Bacteria = assay: In vitro metabolic stability in human stool culture; conditions: human stool culture
# Protocol: Homogenized fresh human stools (500 mg) were transferred into sterile vials to which 5 mL of sterilized chopped meat-glucose medium (Scott Lab., Fiskville, R.I.) was added. BA were then added at a final concentration of 0.05 mM. Vials were incubated at 37° C.; then, at 0, 1, 2, 4, 8 and 24 h after the addition of the BA, the reaction was stopped with 150 μL of 30% KOH. The samples were centrifuged at 3500 rpm for 10 min; from the supernatant the BA were isolated by C-18 solid-phase extraction and analyzed by TLC and HPLC-ES-MS/MS.
# Thin-layer chromatography (TLC), utilizing silica gel 0.25 mm thickness plates (Merck, Darmstat, Germany), was employed as the first screening test. The solvent system used for the separation of conjugated BA was composed of propionic acid/isoamyl acetate/water/N-propanol (3:4:1:2, v/v/v/v; solvent I), and that of the unconjugated BA was acetic acid/carbon tetrachloride/isopropyl ether/isoamyl acetate/water/N-propanol/benzene (1:4:6:8:2:2, v/v/v/v/v/v; solvent II).
# hTGR5 = biological target: T2, hTGR5 (Homo sapiens, UniProt Q8TDU6); assay: Transactivation assay (CRE-driven luciferase reporter) on hTGR5; type: cell-based
# T2 sequence (Q8TDU6 1-330): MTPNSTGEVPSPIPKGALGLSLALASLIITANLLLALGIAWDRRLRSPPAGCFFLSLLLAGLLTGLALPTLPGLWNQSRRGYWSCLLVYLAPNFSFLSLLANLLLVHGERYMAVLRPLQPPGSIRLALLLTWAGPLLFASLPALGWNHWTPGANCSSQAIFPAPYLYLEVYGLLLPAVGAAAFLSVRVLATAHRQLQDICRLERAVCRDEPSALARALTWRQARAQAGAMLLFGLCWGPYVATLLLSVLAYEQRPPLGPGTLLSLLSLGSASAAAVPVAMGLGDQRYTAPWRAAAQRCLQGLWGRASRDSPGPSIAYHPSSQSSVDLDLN
# Protocol: CHO cells were plated in 96-well plates at a density of 3.5×10^4 cells/well, cultured for 24 h, and then transfected with 150 ng of human (h) TGR5 expression plasmid (pCMVSPORT6/hTGR5) and 100 ng of cAMP-responsive element (CRE)-driven luciferase reporter plasmid (pCRE-Luc) in each well using Lipofectamine 2000 reagent (Invitrogen) according to the manufacturer's instructions. After 6 h incubation, cells were washed once with phosphate-buffered saline (PBS) and medium was exchanged for DMEM containing 0.1% (w/v) bovine serum albumin (BSA). After incubation for another 18 h, cells were treated for 5 h with different concentrations of each compound in fresh DMEM containing 0.1% (w/v) BSA.
# For β-galactosidase assays, 10 μl of cell lysate was mixed with 100 μl of Buffer Z [60 mM Na2HPO4, 10 mM KCl, 1 mM MgSO4, 50 mM β-mercaptoethanol and 0.75 mg/ml o-nitrophenyl-β-D-galactopyranoside (ONPG)] and incubated at 37° C. for 0.5-3 h. Reactions were stopped by adding 50 μl of Stop buffer (1M Na2CO3) and the optical density at 420 nm was determined.
# EC50 values were determined by probit analysis.
# VDR = biological target: T3, VDR (Homo sapiens, UniProt P11473); assay: NR selectivity assay VDR; conditions: unnamed ref standard 0.005 μM
# T3 sequence (P11473 1-427): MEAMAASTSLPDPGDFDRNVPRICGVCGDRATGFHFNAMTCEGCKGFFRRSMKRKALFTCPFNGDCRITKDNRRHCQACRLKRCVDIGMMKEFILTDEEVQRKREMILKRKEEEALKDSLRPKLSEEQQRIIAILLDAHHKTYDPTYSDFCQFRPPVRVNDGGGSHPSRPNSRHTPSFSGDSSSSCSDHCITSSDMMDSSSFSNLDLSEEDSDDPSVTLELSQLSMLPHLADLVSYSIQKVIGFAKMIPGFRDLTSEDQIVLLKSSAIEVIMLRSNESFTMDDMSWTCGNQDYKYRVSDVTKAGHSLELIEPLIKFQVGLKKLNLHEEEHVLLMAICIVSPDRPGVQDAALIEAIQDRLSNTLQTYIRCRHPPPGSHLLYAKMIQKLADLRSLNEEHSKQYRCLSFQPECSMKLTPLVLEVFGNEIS
# PPARδ = biological target: T4, PPARδ (Homo sapiens, UniProt Q03181); assay: NR selectivity assay PPARδ; conditions: unnamed ref standard 0.004 μM
# T4 sequence (Q03181 1-441): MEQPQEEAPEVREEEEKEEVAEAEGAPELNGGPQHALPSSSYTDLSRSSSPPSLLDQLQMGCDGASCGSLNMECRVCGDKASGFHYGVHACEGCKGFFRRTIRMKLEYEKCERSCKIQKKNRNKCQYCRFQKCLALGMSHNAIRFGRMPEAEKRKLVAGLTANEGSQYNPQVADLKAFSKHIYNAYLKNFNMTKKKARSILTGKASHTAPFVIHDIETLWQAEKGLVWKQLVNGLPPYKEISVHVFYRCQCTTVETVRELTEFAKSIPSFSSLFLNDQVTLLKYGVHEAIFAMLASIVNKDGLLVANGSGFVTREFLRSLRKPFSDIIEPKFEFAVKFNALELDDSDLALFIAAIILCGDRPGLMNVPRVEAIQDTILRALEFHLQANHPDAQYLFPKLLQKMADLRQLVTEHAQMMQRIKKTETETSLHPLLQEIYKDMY
Compound,LXRα EC50 (LXRα),LogPA- (1-octanol-water partition coefficient) [1],EC50 (HepG2 cell),EC50 [2],side chain stability (Intestinal Bacteria),EC50 (hTGR5),VDR EC50 (VDR),PPARδ EC50 (PPARδ),LogPA- (1-octanol-water partition coefficient) ([1]; Sodium Salt)
"CCC1C(O)C2C3CCC(C(C)CC(C)OS(=O)(=O)O)C3(C)CCC2C2(C)CCC(O)CC12 [Compound 2A, 3α,7α,23-trihydroxy-6α-ethyl-23(S)-methyl-24-nor-5β-cholan-23-sulfate Sodium Salt]",No,2.3,> 1000 µM,> 1000 µM,quite stable,1.2 µM,No,No,
"CC[C@H]1[C@@H](O)[C@@H]2[C@H](C[C@H](O)[C@]3(C)[C@@H]([C@H](C)CCCS(=O)(=O)[O-])CC[C@@H]23)[C@@]2(C)CC[C@@H](O)C[C@@H]12.[Na+] [Compound 3A, 3α,7α,12α-trihydroxy-6α-ethyl-5β-cholan-24-sulfonate Sodium Salt]",No,,> 1000 µM,> 1000 µM,very stable,0.6 µM,No,No,0.71 and 0.7
